Results on eleven compounds are retold here after ChEMBL document CHEMBL1201862, “PubChem BioAssay data set” (2004).

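Five compound concentrations were applied to cells in 96-well plates for 48 hours; endpoints were derived by simple linear interpolation of the resulting dose-response curve. Abbreviation: GI50, concentration required for 50% inhibition of growth.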 Activity calls are given as the source filed them. Cut-off read from the data, not from the text of the source: active = GI50 up to about 1.1 µM and inactive = higher.

Some test systems named below: SNB-75; BT-549; CAKI-1; SK-OV-3; SK-MEL-2; SF-539; HOP-92; K562; M14; COLO 205; KM12; DU-145; NCI-H23; UACC-62; Malme-3M; T47D; SF-295; NCI-H226; A498; MOLT-4.
Common to all, as to assay: NCI-60 cell line screen, 48 h

For `[O-][S+](Cc1ccccc1)c1ccccc1Cn1cccc1` (centres undefined), the GI50 with SNB-75 was 74.3 µM (inactive); in the assay with BT-549, 61.1 µM (inactive); in the assay with CAKI-1, > 100 µM (inactive); in the assay on SK-OV-3, > 100 µM (inactive); with SK-MEL-2, > 100 µM (inactive); with SF-539, > 100 µM (inactive). Moreover, the GI50 in the assay on HOP-92 is 96.6 µM (inactive); with K562, 71.1 µM (inactive); in the assay on M14 it was > 100 µM (inactive); in the assay with COLO 205, > 100 µM (inactive); in the assay on KM12 it was > 100 µM (inactive); with DU-145, > 100 µM (inactive). The GI50 is > 100 µM (inactive) in the assay with NCI-H23; 71.6 µM (inactive) in the assay with UACC-62; > 100 µM (inactive) in the assay with Malme-3M; > 100 µM (inactive) in the assay on T47D; 60.4 µM (inactive) with SF-295.
`Cc1ccc(NC(=O)c2cc(S(=O)(=O)Nc3n[nH]c(=O)[nH]3)c(SSc3cc(Cl)c(C(=O)Nc4ccc(C)cc4)cc3S(=O)(=O)Nc3n[nH]c(=O)[nH]3)cc2Cl)cc1`: the GI50 with SNB-75, in the assay with BT-549, with CAKI-1, in the assay with SK-OV-3, in the assay with SK-MEL-2 and in the assay with NCI-H226 was > 100 µM (inactive) throughout. In addition, the GI50 in the assay on A498, in the assay on HOP-92, with MOLT-4, in the assay with K562, in the assay on M14 and in the assay with COLO 205 was > 100 µM (inactive) in each case. The GI50 with KM12 was > 100 µM (inactive); in the assay on NCI-H23, > 100 µM (inactive); in the assay on UACC-62, 0.838 µM (active); in the assay on Malme-3M it was > 100 µM (inactive); in the assay with SF-295, > 100 µM (inactive).
Regarding `O=C(O)C1(C(=O)O)CC1(C(=O)O)C(=O)O`, the GI50 with SNB-75, with BT-549, with CAKI-1, in the assay on SK-OV-3, in the assay on SK-MEL-2 and with SF-539 was > 100 µM (inactive) in each case. Moreover, the GI50 with NCI-H226, in the assay with MOLT-4, with K562, with M14, in the assay with COLO 205 and in the assay on KM12 was > 100 µM (inactive) in each case. Besides, the GI50 in the assay with DU-145, in the assay with NCI-H23, in the assay with UACC-62, with Malme-3M, with T47D and in the assay with SF-295 was > 100 µM (inactive) each time.
For the compound `O=C(CC(C(=O)c1cccs1)c1ccsc1)c1ccccc1` (centres undefined), the GI50 in the assay with SNB-75 is > 100 µM (inactive); in the assay with CAKI-1, > 100 µM (inactive); in the assay on SK-OV-3, > 100 µM (inactive); with SF-539, > 100 µM (inactive); in the assay with NCI-H226, > 100 µM (inactive); in the assay on A498 it was 51.8 µM (inactive). In addition, the GI50 in the assay on HOP-92 is > 100 µM (inactive); in the assay with MOLT-4 it was 36.6 µM (inactive); in the assay with M14, 34.9 µM (inactive); in the assay with COLO 205, > 100 µM (inactive); in the assay on KM12 it was 38.9 µM (inactive); in the assay on DU-145, > 100 µM (inactive). For the same compound, the GI50 in the assay on NCI-H23 was 26.4 µM (inactive); with UACC-62, 50.7 µM (inactive); with T47D it was 24.7 µM (inactive); with SF-295 it was > 100 µM (inactive).
As for `O=[N+]([O-])/C(C(Cl)=C(Cl)Cl)=C(\SCc1ccccc1)N1CCCCC1`, the GI50 in the assay on CAKI-1 is > 100 µM (inactive); in the assay on SK-OV-3 it was 40 µM (inactive); in the assay with SK-MEL-2, 21.5 µM (inactive); with SF-539, 21.5 µM (inactive); in the assay with NCI-H226, 19.7 µM (inactive); in the assay on A498 it was 31.9 µM (inactive). The GI50 is 0.0879 µM (active) in the assay with HOP-92; 10.7 µM (inactive) in the assay on MOLT-4; 27.8 µM (inactive) in the assay on K562; 19.3 µM (inactive) in the assay with M14; 16.4 µM (inactive) in the assay on COLO 205; 28 µM (inactive) with KM12. The GI50 in the assay with DU-145 is 41.3 µM (inactive); in the assay on NCI-H23 it was 18 µM (inactive); in the assay with UACC-62, 17.9 µM (inactive); in the assay with Malme-3M, 12.2 µM (inactive); with T47D it was 8.43 µM (inactive); in the assay with SF-295, 38.5 µM (inactive).
Turning to `Cc1ccc(/N=c2/oc3c(ccc4ccccc43)nc2Nc2ccc(C)cc2)cc1`, the GI50 with SNB-75, in the assay with CAKI-1, in the assay on SK-OV-3, in the assay on SK-MEL-2, with SF-539 and in the assay with NCI-H226 was > 100 µM (inactive) in each case. For the same compound, the GI50 in the assay on A498, in the assay with HOP-92, in the assay with MOLT-4, in the assay with K562, in the assay on COLO 205 and in the assay on KM12 was > 100 µM (inactive) each time. Moreover, the GI50 in the assay with DU-145, with NCI-H23, in the assay with UACC-62, with Malme-3M, in the assay on T47D and in the assay on SF-295 was > 100 µM (inactive) throughout.
On to `COc1ccc2c(c1O)[C@@]13C=C(O)C(=O)C=C1[C@@H](C2)N(C)CC3`, for which the GI50 in the assay on SNB-75 was 54 µM (inactive); with BT-549, > 100 µM (inactive); with CAKI-1, 88.5 µM (inactive); in the assay on SK-OV-3, > 100 µM (inactive); in the assay with SK-MEL-2, 47.9 µM (inactive); with NCI-H226, 56.9 µM (inactive). Also, the GI50 in the assay with HOP-92 is 53.2 µM (inactive); in the assay with MOLT-4, 36.1 µM (inactive); with K562 it was > 100 µM (inactive); with M14 it was 62.2 µM (inactive); with COLO 205, > 100 µM (inactive); in the assay with KM12, 52.1 µM (inactive). In addition, the GI50 was 56.9 µM (inactive) in the assay on DU-145; 57.4 µM (inactive) in the assay with NCI-H23; > 100 µM (inactive) with UACC-62; 72.6 µM (inactive) with Malme-3M; 63.4 µM (inactive) in the assay on T47D; > 100 µM (inactive) with SF-295.
For the compound `CSC1=C(C#N)C(=O)N(c2ccc(C)cc2)C(=S)C1C#N` (centres undefined), the GI50 in the assay on SNB-75 was 77.1 µM (inactive); with BT-549, > 100 µM (inactive); in the assay with CAKI-1, > 100 µM (inactive); with SK-OV-3, > 100 µM (inactive); in the assay with SK-MEL-2 it was > 100 µM (inactive); with SF-539, > 100 µM (inactive). Moreover, the GI50 was > 100 µM (inactive) in the assay with NCI-H226; > 100 µM (inactive) in the assay on A498; 33.4 µM (inactive) in the assay with HOP-92; > 100 µM (inactive) with MOLT-4; > 100 µM (inactive) with K562; > 100 µM (inactive) in the assay with M14. The GI50 in the assay with COLO 205, with KM12, in the assay with UACC-62, with Malme-3M and with SF-295 was > 100 µM (inactive) throughout.
`Brc1ccc(C2=NCSC(c3ccc(Br)cc3)=N2)cc1`: the GI50 in the assay on SNB-75 was 24.3 µM (inactive); in the assay on BT-549 it was 52.8 µM (inactive); in the assay on CAKI-1 it was 7.98 µM (inactive); in the assay with SK-OV-3 it was 43.1 µM (inactive); with SK-MEL-2, 16.6 µM (inactive); with SF-539, 31.5 µM (inactive). For the same compound, the GI50 was 34.3 µM (inactive) with NCI-H226; 37.7 µM (inactive) with HOP-92; 16.1 µM (inactive) in the assay with MOLT-4; 31 µM (inactive) with K562; 30.5 µM (inactive) in the assay on M14; 59.7 µM (inactive) in the assay on COLO 205. Further, the GI50 with KM12 was 24.4 µM (inactive); in the assay on NCI-H23, 32 µM (inactive); in the assay with UACC-62, 5.3 µM (inactive); with Malme-3M, 35.2 µM (inactive); with SF-295, 26.9 µM (inactive).
For `O=C1C=C2S[C@H]3C[C@]2(C=C1Br)C1=C(N3)C(=O)c2[nH]cc3c2C1=NCC3` [(+)-DISCORHABDIN B], the GI50 in the assay on SNB-75 was 1.55 µM (inactive); in the assay with CAKI-1, 1.69 µM (inactive); with SK-OV-3, 5.62 µM (inactive); in the assay on SK-MEL-2, 0.469 µM (active); with SF-539, 1.63 µM (inactive); with NCI-H226 it was 2.24 µM (inactive). Also, the GI50 in the assay on A498 is 5.65 µM (inactive); in the assay with HOP-92 it was 0.973 µM (active); with MOLT-4, 0.148 µM (active); in the assay on K562, 0.209 µM (active); with M14 it was 0.726 µM (active); with COLO 205, 0.0721 µM (active). Also, the GI50 was 1.6 µM (inactive) in the assay with KM12; 1.92 µM (inactive) in the assay on DU-145; 1.22 µM (inactive) in the assay with NCI-H23; 0.555 µM (active) in the assay on UACC-62; 0.115 µM (active) with Malme-3M; 0.283 µM (active) in the assay on T47D. In addition, the GI50 with SF-295 was 1.5 µM (inactive).
Consider `CN/C(=N\CCSCc1nc[nH]c1C)NC#N` [CIMETIDINE], for which the GI50 with SNB-75 was 33.3 µM (inactive); in the assay on CAKI-1, > 100 µM (inactive); in the assay with SK-OV-3, > 100 µM (inactive); in the assay on SK-MEL-2, > 100 µM (inactive); with SF-539 it was > 100 µM (inactive); with NCI-H226, > 100 µM (inactive). Also, the GI50 in the assay on A498 was 91.6 µM (inactive); in the assay on HOP-92, > 100 µM (inactive); in the assay on MOLT-4, > 100 µM (inactive); in the assay with K562 it was > 100 µM (inactive); in the assay with M14, > 100 µM (inactive); with COLO 205 it was > 100 µM (inactive). Besides, the GI50 in the assay with KM12, in the assay on DU-145, in the assay on NCI-H23, in the assay on UACC-62, in the assay on Malme-3M and with T47D was > 100 µM (inactive) in each case. Also, the GI50 with SF-295 is > 100 µM (inactive).
